Experimental data as given in ChEMBL document CHEMBL5352402, “Discovery of novel non-nucleoside inhibitors with high potency and selectivity for DNA methyltransferase 3A” (Eur J Med Chem, 2022).
Calls of active or inactive are those of the source. The rule behind the calls is not given here.

Columns and labels:
THP-1 [1] = experiment: Antiproliferative activity against human THP-1 cells assessed as inhibition of cell proliferation incubated for 72 hrs by MTT assay; assay type: functional, cell-based; details: THP-1, 72 h
K562 [2] = experiment: Antiproliferative activity against human K562 cells assessed as inhibition of cell proliferation incubated for 72 hrs by MTT assay; assay type: functional, cell-based; details: K562, 72 h
DU-145 [3] = experiment: Antiproliferative activity against human DU-145 cells assessed as inhibition of cell proliferation incubated for 72 hrs by MTT assay; assay type: functional, cell-based; details: DU-145, 72 h
[4] = Cytotoxicity activity against human PBMC cells assessed as inhibition of cell proliferation incubated for 72 hrs by MTT assay; assay type: toxicity, cell-based
[5] = molecular target: DNA (cytosine-5)-methyltransferase 3A (Homo sapiens) (UniProt Q9Y6K1); experiment: Inhibition of DNMT3A in human HCT-116 cells assessed as downregulation of DNMT3A protein level at 1 uM incubated for 72 hrs by Western blot analysis; assay type: cell-based
Chain of DNA (cytosine-5)-methyltransferase 3A (Homo sapiens) (Q9Y6K1 whole entry, looked up): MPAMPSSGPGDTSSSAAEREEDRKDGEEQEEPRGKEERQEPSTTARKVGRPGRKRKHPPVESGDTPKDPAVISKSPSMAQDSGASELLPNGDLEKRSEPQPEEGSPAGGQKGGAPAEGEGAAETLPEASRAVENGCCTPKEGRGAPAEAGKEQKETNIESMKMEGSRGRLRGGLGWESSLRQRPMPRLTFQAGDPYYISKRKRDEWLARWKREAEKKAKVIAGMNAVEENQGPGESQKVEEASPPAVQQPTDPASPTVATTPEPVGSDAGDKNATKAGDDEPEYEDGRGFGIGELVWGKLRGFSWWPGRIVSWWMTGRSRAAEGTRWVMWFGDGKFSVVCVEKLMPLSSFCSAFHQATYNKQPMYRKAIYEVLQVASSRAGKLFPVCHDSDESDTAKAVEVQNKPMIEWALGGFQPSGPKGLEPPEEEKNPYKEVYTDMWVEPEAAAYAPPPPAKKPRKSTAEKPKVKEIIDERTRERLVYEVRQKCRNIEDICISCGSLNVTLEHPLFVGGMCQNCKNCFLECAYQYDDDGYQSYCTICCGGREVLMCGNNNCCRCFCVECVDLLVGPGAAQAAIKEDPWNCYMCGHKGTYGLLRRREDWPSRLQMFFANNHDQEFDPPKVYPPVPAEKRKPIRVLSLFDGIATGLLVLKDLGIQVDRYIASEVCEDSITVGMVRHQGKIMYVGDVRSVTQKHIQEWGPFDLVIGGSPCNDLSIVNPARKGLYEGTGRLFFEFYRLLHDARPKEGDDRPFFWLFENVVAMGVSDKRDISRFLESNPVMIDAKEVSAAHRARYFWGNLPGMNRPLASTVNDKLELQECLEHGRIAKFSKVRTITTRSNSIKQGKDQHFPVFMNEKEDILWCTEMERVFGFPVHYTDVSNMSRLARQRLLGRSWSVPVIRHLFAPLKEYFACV

[6] = molecular target: DNA (cytosine-5)-methyltransferase 3A (Homo sapiens) (UniProt Q9Y6K1); experiment: Inhibition of DNMT3A in human HCT-116 cells assessed as increase in p53 protein level at 1 uM incubated for 72 hrs by Western blot analysis; assay type: cell-based
HCT-116 [7] = experiment: cells; details: Homo sapiens, HCT-116, 72 h
Description: Antiproliferative activity against human HCT-116 cells assessed as inhibition of cell proliferation incubated for 72 hrs by MTT assay

U-937 [8] = experiment: cells; details: Homo sapiens, U-937, 72 h
Description: Antiproliferative activity against human U-937 cells assessed as inhibition of cell proliferation incubated for 72 hrs by MTT assay

A549 [9] = experiment: cells; details: Homo sapiens, A549, 72 h
Description: Antiproliferative activity against human A549 cells assessed as inhibition of cell proliferation incubated for 72 hrs by MTT assay

[10] = molecular target: T1, DNMT3A2/3L complex (Homo sapiens) (UniProt Q9Y6K1+Q9UJW3); experiment: Inhibition of N-terminal His-tagged human DNMT3A (623 to 912 residues)/N-terminal GST-tagged human DNMT3L (160 to 387 residues) co-expressed in baculovirus infected Sf9 cells assessed as DNA methylation using DNA oligonucleotide IDT-01 as substrate at 100 uM preincubated for 15 mins followed by substrate addition in presence of [3H]-SAM and measured after 4 hrs by radioactive methylation assay; details: time 255.0 min
T1 sequence (Q9UJW3 whole entry, looked up, the tested form may be a part): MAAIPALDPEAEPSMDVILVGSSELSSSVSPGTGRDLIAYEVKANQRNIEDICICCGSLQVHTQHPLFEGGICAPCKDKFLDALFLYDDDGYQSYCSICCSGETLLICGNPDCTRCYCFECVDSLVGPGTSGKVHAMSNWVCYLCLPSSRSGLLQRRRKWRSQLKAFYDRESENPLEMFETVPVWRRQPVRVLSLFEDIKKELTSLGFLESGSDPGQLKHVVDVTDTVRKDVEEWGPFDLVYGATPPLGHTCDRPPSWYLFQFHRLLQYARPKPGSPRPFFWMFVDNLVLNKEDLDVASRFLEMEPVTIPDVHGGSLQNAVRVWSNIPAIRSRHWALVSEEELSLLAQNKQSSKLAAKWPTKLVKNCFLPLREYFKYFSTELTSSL
T1 sequence (Q9Y6K1 whole entry, looked up, the tested form may be a part): as the sequence (Q9Y6K1 whole entry, looked up) above

DNMT3A2/3L complex = DNMT3A2/3L complex (Homo sapiens, UniProt Q9Y6K1); experiment: Inhibition of N-terminal His-tagged human DNMT3A (623 to 912 residues)/N-terminal GST-tagged human DNMT3L (160 to 387 residues) co-expressed in baculovirus infected Sf9 cells assessed as DNA methylation using DNA oligonucleotide IDT-01 as substrate preincubated for 15 mins followed by substrate addition in presence of [3H]-SAM and measured after 4 hrs by radioactive methylation assay
Chain of DNMT3A2/3L complex (Q9Y6K1 whole entry, looked up, the tested form may be a part, one chain of several): as the sequence (Q9Y6K1 whole entry, looked up) above

[11] = molecular target: T1, DNMT3A2/3L complex (Homo sapiens); experiment: Inhibition of N-terminal His-tagged human DNMT3A (623 to 912 residues)/N-terminal GST-tagged human DNMT3L (160 to 387 residues) co-expressed in baculovirus infected Sf9 cells assessed as DNA methylation using DNA oligonucleotide IDT-01 as substrate at 10 uM preincubated for 15 mins followed by substrate addition in presence of [3H]-SAM and measured after 4 hrs by radioactive methylation assay; details: time 255.0 min
[12] = molecular target: DNA (cytosine-5)-methyltransferase 1 (Homo sapiens, UniProt P26358); experiment: Inhibition of N-terminal GST-tagged full-length recombinant human DNMT1 assessed as DNA methylation using pdI-pdC DNA as substrate preincubated for 15 mins followed by substrate addition in presence of [3H]-SAM and measured after 150 mins by radioactive methylation assay
Chain of DNA (cytosine-5)-methyltransferase 1 (P26358 whole entry, the tested form may be a part): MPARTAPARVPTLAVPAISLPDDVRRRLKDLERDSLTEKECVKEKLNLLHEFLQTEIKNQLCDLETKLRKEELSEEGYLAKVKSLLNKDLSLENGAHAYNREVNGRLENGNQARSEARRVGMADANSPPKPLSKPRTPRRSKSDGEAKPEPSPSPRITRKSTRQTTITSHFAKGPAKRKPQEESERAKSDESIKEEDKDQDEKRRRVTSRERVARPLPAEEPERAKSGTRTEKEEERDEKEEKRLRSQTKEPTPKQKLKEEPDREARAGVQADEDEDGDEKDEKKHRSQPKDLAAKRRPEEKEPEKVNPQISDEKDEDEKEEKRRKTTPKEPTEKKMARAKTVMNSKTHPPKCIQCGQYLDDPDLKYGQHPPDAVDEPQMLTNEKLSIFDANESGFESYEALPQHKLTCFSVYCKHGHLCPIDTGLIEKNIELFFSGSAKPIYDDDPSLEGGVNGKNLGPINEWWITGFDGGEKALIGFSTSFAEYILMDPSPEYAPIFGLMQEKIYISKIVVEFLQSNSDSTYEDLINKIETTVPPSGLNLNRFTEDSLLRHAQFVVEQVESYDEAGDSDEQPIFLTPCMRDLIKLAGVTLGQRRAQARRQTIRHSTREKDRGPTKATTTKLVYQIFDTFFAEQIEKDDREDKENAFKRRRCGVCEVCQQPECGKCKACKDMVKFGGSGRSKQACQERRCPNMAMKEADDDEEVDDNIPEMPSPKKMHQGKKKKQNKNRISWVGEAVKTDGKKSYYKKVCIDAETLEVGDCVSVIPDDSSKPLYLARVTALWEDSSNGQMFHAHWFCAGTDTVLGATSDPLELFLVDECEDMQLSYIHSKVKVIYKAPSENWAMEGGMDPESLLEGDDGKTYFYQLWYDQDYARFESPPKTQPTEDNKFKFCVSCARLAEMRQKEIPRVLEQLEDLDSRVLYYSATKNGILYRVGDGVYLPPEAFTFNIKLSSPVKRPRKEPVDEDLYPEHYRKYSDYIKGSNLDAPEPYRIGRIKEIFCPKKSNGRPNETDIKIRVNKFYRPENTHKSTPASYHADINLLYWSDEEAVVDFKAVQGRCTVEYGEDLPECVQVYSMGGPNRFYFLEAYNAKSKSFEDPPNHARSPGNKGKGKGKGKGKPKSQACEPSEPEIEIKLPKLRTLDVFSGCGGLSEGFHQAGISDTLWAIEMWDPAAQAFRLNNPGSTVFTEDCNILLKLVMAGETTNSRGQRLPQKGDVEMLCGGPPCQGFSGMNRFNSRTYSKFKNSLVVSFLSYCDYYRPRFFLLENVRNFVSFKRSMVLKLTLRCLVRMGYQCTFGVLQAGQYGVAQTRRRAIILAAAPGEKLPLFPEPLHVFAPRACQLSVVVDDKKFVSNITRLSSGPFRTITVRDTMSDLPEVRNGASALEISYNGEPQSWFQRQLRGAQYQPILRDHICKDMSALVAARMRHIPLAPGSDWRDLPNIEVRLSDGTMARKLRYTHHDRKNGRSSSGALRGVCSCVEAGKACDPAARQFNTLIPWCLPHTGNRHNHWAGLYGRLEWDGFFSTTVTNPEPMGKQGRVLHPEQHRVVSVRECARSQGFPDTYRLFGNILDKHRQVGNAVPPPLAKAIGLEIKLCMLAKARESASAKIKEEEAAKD

DNMT3B = DNMT3B (Homo sapiens, UniProt Q9UBC3); experiment: Inhibition of N-terminal His-tagged human DNMT3B (564 to 853 residues)/N-terminal GST-tagged human DNMT3L (160 to 387 residues) co-expressed in baculovirus infected Sf9 cells assessed as DNA methylation using DNA oligonucleotide IDT-01 as substrate preincubated for 15 mins followed by substrate addition in presence of [3H]-SAM and measured after 4 hrs by radioactive methylation assay
[13] = molecular target: T2, Histone-lysine N-methyltransferase EHMT2 (Homo sapiens, UniProt Q96KQ7); experiment: Inhibition of N-terminal GST-tagged human G9a expressed in baculovirus infected Sf9 cells using biotinylated histone H3 peptide as substrate preincubated for 15 mins followed by substrate addition in presence of SAM and measured after 60 mins by AlphaLISA assay
T2 sequence (Q96KQ7 whole entry): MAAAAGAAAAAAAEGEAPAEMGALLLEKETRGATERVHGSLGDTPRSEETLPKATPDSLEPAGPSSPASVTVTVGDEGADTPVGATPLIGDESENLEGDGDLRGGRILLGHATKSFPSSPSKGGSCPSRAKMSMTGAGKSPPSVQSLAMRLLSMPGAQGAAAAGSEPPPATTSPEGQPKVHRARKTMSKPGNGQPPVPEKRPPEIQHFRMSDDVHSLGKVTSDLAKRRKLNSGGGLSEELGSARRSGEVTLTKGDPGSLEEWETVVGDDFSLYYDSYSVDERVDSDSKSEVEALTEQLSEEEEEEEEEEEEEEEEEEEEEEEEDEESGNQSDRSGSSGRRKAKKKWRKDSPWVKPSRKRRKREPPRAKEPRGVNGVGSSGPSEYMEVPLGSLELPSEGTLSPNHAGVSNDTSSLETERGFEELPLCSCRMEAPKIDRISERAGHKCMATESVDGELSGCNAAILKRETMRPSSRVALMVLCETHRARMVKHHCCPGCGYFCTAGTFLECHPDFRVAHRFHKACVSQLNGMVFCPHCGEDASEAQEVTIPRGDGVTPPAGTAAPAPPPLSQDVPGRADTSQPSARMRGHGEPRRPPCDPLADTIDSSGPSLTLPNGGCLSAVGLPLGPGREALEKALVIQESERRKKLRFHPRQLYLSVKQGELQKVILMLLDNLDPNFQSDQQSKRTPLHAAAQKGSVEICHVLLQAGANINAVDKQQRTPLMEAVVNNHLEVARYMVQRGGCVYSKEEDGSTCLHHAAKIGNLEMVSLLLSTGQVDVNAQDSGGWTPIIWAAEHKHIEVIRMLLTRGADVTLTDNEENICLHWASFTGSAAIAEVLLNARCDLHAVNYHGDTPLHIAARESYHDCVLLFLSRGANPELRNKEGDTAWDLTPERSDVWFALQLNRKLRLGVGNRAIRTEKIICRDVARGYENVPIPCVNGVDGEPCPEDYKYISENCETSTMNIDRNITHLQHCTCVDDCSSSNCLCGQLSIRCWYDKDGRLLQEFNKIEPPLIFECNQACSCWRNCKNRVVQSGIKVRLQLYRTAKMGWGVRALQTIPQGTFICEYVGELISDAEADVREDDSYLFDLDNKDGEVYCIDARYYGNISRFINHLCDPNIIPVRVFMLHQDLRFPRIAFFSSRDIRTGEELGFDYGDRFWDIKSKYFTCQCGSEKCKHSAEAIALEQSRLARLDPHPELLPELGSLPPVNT

THP-1 [14] = experiment: Antiproliferative activity against human THP-1 cells assessed as inhibition of cell proliferation at 0.1 to 100 uM incubated upto 72 hrs by MTT assay; assay type: functional, cell-based; details: dose 0.1-100 µM
HCT-116 [15] = experiment: Antiproliferative activity against human HCT-116 cells assessed as inhibition of cell proliferation at 0.1 to 100 uM incubated upto 72 hrs by MTT assay; assay type: functional, cell-based; details: dose 0.1-100 µM
U-937 [16] = experiment: Antiproliferative activity against human U-937 cells assessed as inhibition of cell proliferation at 0.1 to 100 uM incubated upto 72 hrs by MTT assay; assay type: functional, cell-based; details: dose 0.1-100 µM
K562 [17] = experiment: Antiproliferative activity against human K562 cells assessed as inhibition of cell proliferation at 0.1 to 100 uM incubated upto 72 hrs by MTT assay; assay type: functional, cell-based; details: dose 0.1-100 µM
A549 [18] = experiment: Antiproliferative activity against human A549 cells assessed as inhibition of cell proliferation at 0.1 to 100 uM incubated upto 72 hrs by MTT assay; assay type: functional, cell-based; details: dose 0.1-100 µM
DU-145 [19] = experiment: Antiproliferative activity against human DU-145 cells assessed as inhibition of cell proliferation at 0.1 to 100 uM incubated upto 72 hrs by MTT assay; assay type: functional, cell-based; details: dose 0.1-100 µM
THP-1 [20] = experiment: Antiproliferative activity against human THP-1 cells assessed as inhibition of cell proliferation at 100 uM incubated for 24 to 72 hrs by MTT assay; assay type: functional, cell-based; details: time 24-72 hrs, TDE = time-dependent effect
HCT-116 [21] = experiment: Antiproliferative activity against human HCT-116 cells assessed as inhibition of cell proliferation at 100 uM incubated for 24 to 72 hrs by MTT assay; assay type: functional, cell-based; details: time 24-72 hrs, TDE = time-dependent effect
U-937 [22] = experiment: Antiproliferative activity against human U-937 cells assessed as inhibition of cell proliferation at 100 uM incubated for 24 to 72 hrs by MTT assay; assay type: functional, cell-based; details: time 24-72 hrs, TDE = time-dependent effect
K562 [23] = experiment: Antiproliferative activity against human K562 cells assessed as inhibition of cell proliferation at 100 uM incubated for 24 to 72 hrs by MTT assay; assay type: functional, cell-based; details: time 24-72 hrs, TDE = time-dependent effect
A549 [24] = experiment: Antiproliferative activity against human A549 cells assessed as inhibition of cell proliferation at 100 uM incubated for 24 to 72 hrs by MTT assay; assay type: functional, cell-based; details: time 24-72 hrs, TDE = time-dependent effect
DU-145 [25] = experiment: Antiproliferative activity against human DU-145 cells assessed as inhibition of cell proliferation at 100 uM incubated for 24 to 72 hrs by MTT assay; assay type: functional, cell-based; details: time 24-72 hrs, TDE = time-dependent effect

SMILES | IC50 (THP-1 [1]) | IC50 (K562 [2]) | IC50 (DU-145 [3]) | IC50 at 72 h [4] | IC50 (HCT-116 [7]) | IC50 (U-937 [8]) | IC50 (A549 [9]) | inhibition [10] | IC50 (DNMT3A2/3L complex) | inhibition [11] | IC50 [12] | IC50 (DNMT3B) | IC50 [13] | Activity (THP-1 [14]) | Activity (HCT-116 [15]) | Activity (U-937 [16]) | Activity (K562 [17]) | Activity (A549 [18]) | Activity (DU-145 [19]) | Activity (THP-1 [20]) | other results
Cc1cc(Nc2ccc(NC(=O)c3ccc(Nc4ccnc5ccccc45)cc3)cc2)nc(N)n1 | 700 nM | 0.6 µM | 3.4 µM | 2 µM | 900 nM | 700 nM | 8.9 µM |  |  |  |  |  |  |  |  |  |  |  |  |  | inhibition [5]: inactive; p53 protein level increase (active/not active) [6]: inactive
Cc1sc2ncn(CCN3CCOCC3)c(=O)c2c1C(=O)Nc1ccc(S(N)(=O)=O)nc1 |  |  |  |  |  |  |  | 40.4% | > 100000 nM | 8.3% |  |  |  |  |  |  |  |  |  |  | 
Cc1oc2ncn(CCCN3CCCCC3)c(=O)c2c1C(=O)Nc1ccc(S(N)(=O)=O)nc1 | 4200 nM | 5.4 µM | 4.1 µM | 144 µM | 1600 nM | 3500 nM | 8.5 µM | 89.8% | 1300 nM | 66% | 15.9 µM | 64.7 µM | 14.9 µM | Dose-Dependent Effect | Dose-Dependent Effect | Dose-Dependent Effect | Dose-Dependent Effect | Dose-Dependent Effect | Dose-Dependent Effect | Tde | Activity (HCT-116 [21]): Tde; Activity (U-937 [22]): Tde; Activity (K562 [23]): Tde; Activity (A549 [24]): Tde; Activity (DU-145 [25]): Tde
Cc1oc2ncn(CCN3CCCCC3)c(=O)c2c1C(=O)Nc1ccc(S(N)(=O)=O)nc1 | 2200 nM | 6.1 µM | 5.3 µM | 137 µM | 500 nM | 1800 nM | 11.1 µM | 77.7% |  | 70.5% | 51.2 µM | > 100 µM | > 500 µM | Dose-Dependent Effect | Dose-Dependent Effect | Dose-Dependent Effect | Dose-Dependent Effect | Dose-Dependent Effect | Dose-Dependent Effect | Tde | p53 protein level increase (active/not active) [6]: Active; Activity (HCT-116 [21]): Tde; Activity (U-937 [22]): Tde; Activity (K562 [23]): Tde; Activity (A549 [24]): Tde; Activity (DU-145 [25]): Tde
Cc1oc2ncn(Cc3cccnc3)c(=O)c2c1C(=O)Nc1ccc(S(N)(=O)=O)nc1 |  |  |  |  |  |  |  | 48% | > 100000 nM | 11.3% |  |  |  |  |  |  |  |  |  |  | 
Cc1oc2ncn(CCCN3CCCC3)c(=O)c2c1C(=O)Nc1ccc(S(N)(=O)=O)nc1 | 3300 nM | 6.5 µM | 2.8 µM | 161 µM | 2100 nM | 4200 nM | 15.7 µM | 94.1% | 1800 nM | 69.6% | 9.6 µM | 120 µM | 308 µM | Dose-Dependent Effect | Dose-Dependent Effect | Dose-Dependent Effect | Dose-Dependent Effect | Dose-Dependent Effect | Dose-Dependent Effect | Tde | Activity (HCT-116 [21]): Tde; Activity (U-937 [22]): Tde; Activity (K562 [23]): Tde; Activity (A549 [24]): Tde; Activity (DU-145 [25]): Tde
